Where two headings read alike, the source gives them in different places.
Biological target: T1, SIRT1 (Homo sapiens, UniProt Q96EB6)
T1 sequence (Q96EB6 1-747): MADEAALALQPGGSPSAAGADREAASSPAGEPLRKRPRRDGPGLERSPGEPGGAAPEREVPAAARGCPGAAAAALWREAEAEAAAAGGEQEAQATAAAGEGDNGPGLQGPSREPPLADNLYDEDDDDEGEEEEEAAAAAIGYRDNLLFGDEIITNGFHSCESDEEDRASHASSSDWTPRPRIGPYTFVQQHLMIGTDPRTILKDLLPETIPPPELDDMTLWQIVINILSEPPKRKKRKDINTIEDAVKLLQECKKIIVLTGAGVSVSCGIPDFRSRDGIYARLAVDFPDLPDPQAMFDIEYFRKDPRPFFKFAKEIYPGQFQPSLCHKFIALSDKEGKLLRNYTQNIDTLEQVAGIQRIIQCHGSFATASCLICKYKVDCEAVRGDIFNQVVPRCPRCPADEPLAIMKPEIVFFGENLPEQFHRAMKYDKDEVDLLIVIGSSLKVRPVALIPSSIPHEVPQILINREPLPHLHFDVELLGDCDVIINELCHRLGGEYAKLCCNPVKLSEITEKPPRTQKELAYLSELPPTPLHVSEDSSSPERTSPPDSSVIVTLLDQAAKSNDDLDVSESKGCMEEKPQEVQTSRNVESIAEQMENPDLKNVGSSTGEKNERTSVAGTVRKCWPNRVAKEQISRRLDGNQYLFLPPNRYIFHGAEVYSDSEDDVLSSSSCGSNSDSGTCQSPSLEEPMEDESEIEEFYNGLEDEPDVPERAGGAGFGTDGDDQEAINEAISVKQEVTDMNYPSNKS
Experiment: Mass spectrometry based SIRT1 deacetylase activation assay (acetylated p53-derived peptide substrate)
Format: biochemical

[1] = 0.5 μM peptide substrate, 120 μM βNAD+, 10 nM SIRT1, 25 minutes at 25° C.
[2] = 0.5 μM peptide substrate, 120 μM βNAD+, 10 nM SIRT1, 25 min at 25° C.
[3] = 0.5 μM peptide substrate, 120 μM βNAD+, 10 nM SIRT1, 25 min at 25° C., read-out: EC1.5

EC1.5 [1] | Fold Act. (percent maximum fold activation) [1] | EC1.5 | Fold Act. (percent maximum fold activation) | SMILES | other results
 |  | B (EC1.5 1-25 uM) | A (Fold activation >200%) | O=C(Nc1nccs1)c1cccc2[nH]c(-c3c(F)cccc3F)nc12 [Compound 265] | 
 |  | B (EC1.5 1-25 uM) | A (Fold activation >200%) | O=C(Nc1nccs1)c1cccc2[nH]c(-c3cccc(Cl)c3)nc12 [Compound 219] | 
A (EC1.5<1.0 uM) | A (Fold activation >200%) |  |  | Cc1ncccc1-c1nc2c(C(=O)Nc3cccc(CN4CCOCC4)n3)cccc2[nH]1 [Compound 814, 2-(2-methylpyridin-3-yl)-N-(6-(morpholinomethyl)pyridin-2-yl)-1H-benzo[d]imidazole-4-carboxamide] | 
A (EC1.5<1.0 uM) | A (Fold activation >200%) |  |  | O=C(Nc1cccc(OC2CCNC2)c1)c1cccc2[nH]c(-c3ccc(F)cc3C(F)(F)F)nc12 (centres unmarked) [Compound 660] | 
A (EC1.5<1.0 uM) | A (Fold activation >200%) |  |  | O=C(Nc1cccc(OC[C@H](O)CO)c1)c1cccc2[nH]c(-c3cc(F)ccc3F)nc12 [Compound 785] | 
 |  | A (EC1.5<1.0 uM) | A (Fold activation >200%) | Cc1cc(-c2nc3c(C(=O)Nc4nccs4)cccc3[nH]2)n(C)n1 [Compound 281] | 
A (EC1.5<1.0 uM) | A (Fold activation >200%) |  |  | Cc1cnc(NC(=O)c2cccc3[nH]c(-c4sc(N5CCOCC5)nc4C)nc23)s1 [Compound 601] | 
 |  | A (EC1.5<1.0 uM) | A (Fold activation >200%) | O=C(Nc1nccs1)c1cccc2[nH]c(-c3cc(F)ccc3C(F)(F)F)nc12 [Compound 302] | 
A (EC1.5<1.0 uM) | A (Fold activation >200%) |  |  | O=C(Nc1cccnc1)c1cc(N2CCOCC2)cc2[nH]c(-c3cc(F)ccc3C(F)F)nc12 [Compound 767] | 
 |  | B (EC1.5 1-25 uM) | A (Fold activation >200%) | O=C(NC1CCOCC1)c1cccc2[nH]c(-c3cccc(C(F)(F)F)c3)nc12 [Compound 275] | 
 |  | A (EC1.5<1.0 uM) | A (Fold activation >200%) | O=C(Nc1cnccn1)c1cccc2[nH]c(-c3cccc(N4CCOCC4)c3)nc12 [Compound 297] | 
 |  | A (EC1.5<1.0 uM) | A (Fold activation >200%) | Cc1nc(NC(=O)c2cccc3[nH]c(-c4cccc(N5CCOCC5)c4)nc23)sc1C [Compound 382] | 
A (EC1.5<1.0 uM) | A (Fold activation >200%) |  |  | O=C(Nc1cccc(OC[C@H](O)CO)c1)c1cccc2[nH]c(-c3cccc(Cl)c3)nc12 [Compound 782] | 

The next lines start with the compound.

SMILES | EC1.5 [1] | Fold Act. (percent maximum fold activation) [1] | EC1.5 | Fold Act. (percent maximum fold activation) | other results
O=C(Nc1cccc(OCC(O)CO)c1)c1cccc2[nH]c(-c3cccnc3)nc12 (centres unmarked) [Compound 794] | A (EC1.5<1.0 uM) | A (Fold activation >200%) |  |  | 
O=C(Nc1ccccn1)c1cccc2[nH]c(-c3cccc4c3OC(F)(F)O4)nc12 [Compound 496] |  |  |  |  | Fold Act. (percent maximum fold activation) [2]: A (Fold activation >200%); EC1.5 [3]: < 1000 nM
O=C(Nc1cccc(OCC(O)CO)c1)c1cccc2[nH]c(-c3ccc(Cl)cc3C(F)(F)F)nc12 (centres unmarked) [Compound 479] |  |  |  |  | Fold Act. (percent maximum fold activation) [2]: A (Fold activation >200%); EC1.5 [3]: < 1000 nM
O=C(Nc1ccc(Cl)cn1)c1cccc2[nH]c(-c3cccc(C(F)(F)F)c3)nc12 [Compound 285] |  |  | B (EC1.5 1-25 uM) | A (Fold activation >200%) | 
O=C(Nc1ccncc1)c1cccc2[nH]c(-c3cc(F)ccc3C(F)(F)F)nc12 [Compound 316] |  |  | A (EC1.5<1.0 uM) | A (Fold activation >200%) | 
O=C(Nc1cccnn1)c1cncc2[nH]c(-c3ccc(F)cc3C(F)(F)F)nc12 [Compound 696] | B (EC1.5 1-25 uM) | A (Fold activation >200%) |  |  | 
O=C(Nc1ccccn1)c1cccc2[nH]c(-c3ccc(-c4nnn[nH]4)cc3)nc12 [Compound 342] |  |  | A (EC1.5<1.0 uM) | A (Fold activation >200%) | 
O=C(Nc1nccs1)c1cccc2[nH]c(-c3ccc(F)cc3OCCN3CCOCC3)nc12 [Compound 503] |  |  |  |  | Fold Act. (percent maximum fold activation) [2]: B (Fold Activation <200%); EC1.5 [3]: 1000 to 25000 nM
O=C(Nc1ccccn1)c1cccc2[nH]c(-c3ccccc3OCCN3CCC(F)(F)C3)nc12 [Compound 615] | C (EC1.5 >25 uM) | B (Fold Activation <200%) |  |  | 
O=C(Nc1cccnc1)c1cccc2[nH]c(-c3ccc(N4CCOCC4)cc3C(F)(F)F)nc12 [Compound 430, 2-(4-morpholino-2-(trifluoromethyl)phenyl)-N-(pyridin-3-yl)-1H-benzo[d]imidazole-4-carboxamide] |  |  |  |  | Fold Act. (percent maximum fold activation) [2]: A (Fold activation >200%); EC1.5 [3]: < 1000 nM
CCCN1CCCc2ccc(-c3nc4c(C(=O)Nc5nccs5)cccc4[nH]3)cc21 [Compound 425] |  |  |  |  | Fold Act. (percent maximum fold activation) [2]: A (Fold activation >200%); EC1.5 [3]: 1000 to 25000 nM
O=C(Nc1nccs1)c1cccc2[nH]c(-c3ccccc3OC(F)(F)F)nc12 [Compound 305] |  |  | A (EC1.5<1.0 uM) | A (Fold activation >200%) | 
O=C(Nc1ccc(OCC(O)CO)cc1)c1cccc2[nH]c(-c3ccccc3C(F)(F)F)nc12 (centres unmarked) [Compound 492] |  |  |  |  | Fold Act. (percent maximum fold activation) [2]: A (Fold activation >200%); EC1.5 [3]: < 1000 nM
O=C(Nc1nccs1)c1cccc2[nH]c(-c3cc(Cl)ccc3C(F)(F)F)nc12 [Compound 258] |  |  | B (EC1.5 1-25 uM) | A (Fold activation >200%) | 
O=C(Nc1ccc(CN2CCCC2)cc1)c1cccc2[nH]c(-c3ccc(F)cc3C(F)(F)F)nc12 [Compound 813] | A (EC1.5<1.0 uM) | A (Fold activation >200%) |  |  | 
CC1(C)Cc2cccc(-c3nc4c(C(=O)Nc5cccnc5)cccc4[nH]3)c2O1 [Compound 401] |  |  |  |  | Fold Act. (percent maximum fold activation) [2]: A (Fold activation >200%); EC1.5 [3]: 1000 to 25000 nM
Cc1cc(NC(=O)c2cccc3[nH]c(-c4cccc(N5CCOCC5)c4)nc23)n(C)n1 [Compound 399] |  |  |  |  | Fold Act. (percent maximum fold activation) [2]: A (Fold activation >200%); EC1.5 [3]: < 1000 nM
O=C(Nc1cccnc1)c1cccc2[nH]c(-c3ccnc(N4CCCCC4)c3)nc12 [Compound 373] |  |  | B (EC1.5 1-25 uM) | A (Fold activation >200%) | 
CC(C)(C)NCCOc1ccccc1-c1nc2c(C(=O)Nc3nccs3)cccc2[nH]1 [Compound 580] |  |  |  |  | Fold Act. (percent maximum fold activation) [2]: A (Fold activation >200%); EC1.5 [3]: 1000 to 25000 nM
O=C(Nc1ccccn1)c1cc(F)cc2[nH]c(-c3ccc(OC[C@H](O)CO)cc3C(F)F)nc12 [Compound 830] | A (EC1.5<1.0 uM) | A (Fold activation >200%) |  |  | 
Cc1cc(NC(=O)c2cccc3[nH]c(-c4cccc(C(F)(F)F)c4)nc23)sn1 [Compound 306] |  |  | B (EC1.5 1-25 uM) | B (Fold Activation <200%) | 

From patent US8846947B2, “Benzimidazoles and related analogs as sirtuin modulators” (GlaxoSmithKline LLC, priority 2008, dated 2014)
